# Numbers after ± are expanded uncertainties.
# Conditions: Liquid, Closed cell (Static) method
Compound,vapor or sublimation pressure (283.15 K),vapor or sublimation pressure (293.15 K),vapor or sublimation pressure (303.15 K),vapor or sublimation pressure (313.15 K),vapor or sublimation pressure (323.15 K)
"C=C(F)C(F)(F)F [2,3,3,3-tetrafluoro-1-propene]",437.9 ± 7 kPa,591.5 ± 7.1 kPa,782.9 ± 7.1 kPa,1018.2 ± 7.2 kPa,1302.4 ± 7.2 kPa
CCCC [butane],148.1 ± 1 kPa,207.2 ± 1 kPa,283.4 ± 1.1 kPa,378.6 ± 1.1 kPa,496.5 ± 1.2 kPa
